In doi:10.1101/706168v1 (biorxiv, 2019):

Key:
Experiment in all cases: cell-based
TRPC6 = molecular target: T1, TRPC6 (Homo sapiens, UniProt Q9Y210)
T1 sequence (Q9Y210 1-931): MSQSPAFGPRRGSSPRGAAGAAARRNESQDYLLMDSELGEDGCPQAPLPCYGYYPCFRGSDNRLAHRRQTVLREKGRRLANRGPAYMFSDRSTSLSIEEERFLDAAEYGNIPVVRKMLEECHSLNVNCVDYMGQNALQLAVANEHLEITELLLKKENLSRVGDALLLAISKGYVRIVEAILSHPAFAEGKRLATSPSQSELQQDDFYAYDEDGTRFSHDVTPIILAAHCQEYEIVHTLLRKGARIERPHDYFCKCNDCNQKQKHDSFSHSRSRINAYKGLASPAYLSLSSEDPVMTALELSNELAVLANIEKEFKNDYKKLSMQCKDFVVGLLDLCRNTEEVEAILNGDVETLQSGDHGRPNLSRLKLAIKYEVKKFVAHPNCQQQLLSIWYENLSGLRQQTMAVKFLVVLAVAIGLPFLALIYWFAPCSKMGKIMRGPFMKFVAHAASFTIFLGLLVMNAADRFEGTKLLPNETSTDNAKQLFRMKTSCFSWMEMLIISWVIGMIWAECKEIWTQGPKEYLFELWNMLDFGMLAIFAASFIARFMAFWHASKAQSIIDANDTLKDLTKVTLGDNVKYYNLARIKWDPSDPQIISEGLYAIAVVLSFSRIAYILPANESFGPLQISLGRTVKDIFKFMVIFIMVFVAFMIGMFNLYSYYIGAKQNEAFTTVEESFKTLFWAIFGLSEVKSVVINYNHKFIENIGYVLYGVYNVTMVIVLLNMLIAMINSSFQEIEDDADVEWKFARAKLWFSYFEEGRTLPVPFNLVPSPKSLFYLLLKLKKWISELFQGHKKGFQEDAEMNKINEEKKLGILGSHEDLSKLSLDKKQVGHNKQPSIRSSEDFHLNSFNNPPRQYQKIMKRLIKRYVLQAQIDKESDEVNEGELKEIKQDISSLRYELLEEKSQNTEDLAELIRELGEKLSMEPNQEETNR

EAG1 = molecular target: T2, EAG1 (Homo sapiens, UniProt O95259)
T2 sequence (O95259 1-989): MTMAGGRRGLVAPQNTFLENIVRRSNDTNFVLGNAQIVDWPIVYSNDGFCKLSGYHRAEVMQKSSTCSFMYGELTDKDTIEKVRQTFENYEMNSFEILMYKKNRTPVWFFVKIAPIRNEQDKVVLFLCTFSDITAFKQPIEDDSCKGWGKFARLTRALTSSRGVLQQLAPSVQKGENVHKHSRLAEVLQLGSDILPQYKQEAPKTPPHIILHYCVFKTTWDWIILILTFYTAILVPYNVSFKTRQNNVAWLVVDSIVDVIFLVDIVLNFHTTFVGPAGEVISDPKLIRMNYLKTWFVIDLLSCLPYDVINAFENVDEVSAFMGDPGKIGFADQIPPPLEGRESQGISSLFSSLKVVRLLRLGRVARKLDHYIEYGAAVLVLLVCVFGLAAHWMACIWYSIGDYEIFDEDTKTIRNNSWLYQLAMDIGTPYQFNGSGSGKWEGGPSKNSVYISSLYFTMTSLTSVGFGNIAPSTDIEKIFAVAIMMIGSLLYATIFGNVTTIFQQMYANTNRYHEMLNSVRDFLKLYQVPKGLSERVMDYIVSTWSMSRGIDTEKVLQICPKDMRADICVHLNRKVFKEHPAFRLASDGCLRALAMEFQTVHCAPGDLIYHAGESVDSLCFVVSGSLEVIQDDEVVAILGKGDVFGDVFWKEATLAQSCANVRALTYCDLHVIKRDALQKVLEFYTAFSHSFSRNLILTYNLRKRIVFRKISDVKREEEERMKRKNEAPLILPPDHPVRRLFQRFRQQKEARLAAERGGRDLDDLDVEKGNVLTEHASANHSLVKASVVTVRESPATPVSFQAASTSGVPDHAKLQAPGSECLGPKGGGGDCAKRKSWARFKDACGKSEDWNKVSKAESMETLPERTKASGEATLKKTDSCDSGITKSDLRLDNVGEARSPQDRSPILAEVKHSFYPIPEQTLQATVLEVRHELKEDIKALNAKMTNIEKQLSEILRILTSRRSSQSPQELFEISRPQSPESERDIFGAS

Kir3.1/3.4 = molecular target: T3, Kir3.1/3.4 (Homo sapiens, UniProt P48544+P48549)
T3 sequence (P48544 1-419): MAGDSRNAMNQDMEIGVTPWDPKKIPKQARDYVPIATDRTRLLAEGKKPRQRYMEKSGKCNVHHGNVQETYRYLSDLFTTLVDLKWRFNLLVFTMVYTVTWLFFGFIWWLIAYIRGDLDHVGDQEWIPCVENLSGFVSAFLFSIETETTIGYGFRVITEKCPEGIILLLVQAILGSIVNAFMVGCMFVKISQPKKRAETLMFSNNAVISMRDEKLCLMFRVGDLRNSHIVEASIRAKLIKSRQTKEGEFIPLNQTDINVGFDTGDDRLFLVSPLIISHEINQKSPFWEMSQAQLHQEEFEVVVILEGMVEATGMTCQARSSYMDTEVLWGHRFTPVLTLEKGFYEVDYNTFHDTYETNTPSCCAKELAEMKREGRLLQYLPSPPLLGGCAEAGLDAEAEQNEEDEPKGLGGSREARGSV
T3 sequence (P48549 1-501): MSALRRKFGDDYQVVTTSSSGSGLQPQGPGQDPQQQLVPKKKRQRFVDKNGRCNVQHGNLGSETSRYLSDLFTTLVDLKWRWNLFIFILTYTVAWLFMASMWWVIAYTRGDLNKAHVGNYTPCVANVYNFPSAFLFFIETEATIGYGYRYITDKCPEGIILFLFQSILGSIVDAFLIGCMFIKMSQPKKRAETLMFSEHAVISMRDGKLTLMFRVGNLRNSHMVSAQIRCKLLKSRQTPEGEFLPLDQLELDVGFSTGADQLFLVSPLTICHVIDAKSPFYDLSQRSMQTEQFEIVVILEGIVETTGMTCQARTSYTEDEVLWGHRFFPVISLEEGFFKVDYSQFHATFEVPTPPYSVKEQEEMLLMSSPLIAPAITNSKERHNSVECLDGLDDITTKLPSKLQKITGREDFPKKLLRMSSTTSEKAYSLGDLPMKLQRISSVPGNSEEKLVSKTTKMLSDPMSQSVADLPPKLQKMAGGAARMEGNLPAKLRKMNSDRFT

Measured: IC50

O=C(c1ccccc1F)N1CCN(Cc2c(-c3ccc(Br)cc3)nc3ccccn23)CC1 [BAY 1000493, (4-{[2-(4-bromophenyl)imidazo[1,2-a]pyridin-3-yl]methyl}vpiperazin-1-yl)(2-fluorophenyl)methanone]
> 30 µM: all assays above
